In brackets after ≈: the same amount, converted by molar mass. Read-outs that look alike come from different tables or passages of the source.
Experiments:
[1] = test system: four Candida isolates, C. albicans K-1, C. tropicalis 98-234, C. auris B 11211, and C. glabrata 4720; test: In vitro MIC susceptibility testing, positive control over the isolates; format: cell-based; conditions: RPMI medium, 33° C., 24 hours
Method: (§1) In vitro MIC susceptibility testing. Turbinmicin analogs of the present disclosure were tested for antifungal activity against four Candida isolates, C. albicans K-1, C. tropicalis 98-234, C. auris B 11211, and C. glabrata 4720, and MICs were determined using a broth microdilution method for yeasts. A turbinmicin analog was dissolved in DMSO, serially diluted to 10 concentrations (0.125-64 μg/mL), and tested in a 96-well plate in RPMI medium. Amphotericin B was used as a positive control and the MICs range were 0.25-1.5 μg/mL. Six untreated media controls were included on each plate. The plates were incubated at 33° C. for 24 hours. The MICs were determined as the lowest concentration that inhibited visible growth. The MICs were read at 24. Results are shown in Table 1 for turbinmicin analog activity against various fungi, including drug-resistant fungi.

C. tropicalis 98-234 = test: In vitro MIC susceptibility testing, broth microdilution; format: cell-based, Candida tropicalis; conditions: for MIC: read-out: MIC C. tropicalis 98-234
Method: (§2) In vitro MIC susceptibility testing. […] Six untreated media controls were included on each plate. The plates were incubated at 33° C. for 24 hours. The MICs were determined as the lowest concentration that inhibited visible growth. The MICs were read at 24.

C. auris B 11211 = test: as above; format: cell-based, Candida auris; conditions: for MIC: Candidozyma auris, read-out: MIC C. auris B11211
Method: as §1, with “Amphotericin B was used as a positive control and the MICs range were 0.25-1.5 μg/mL.” left out, “24.” for “24. Results are shown in Table 1 for turbinmicin analog activity against various fungi, including drug-resistant fungi.”

C. glabrata 4720 = test: as above; format: cell-based, Candida glabrata; conditions: for MIC: read-out: MIC C. glabrata 4720
Method: as §2

C. albicans K-1 = test: as above; format: cell-based, Candida albicans; conditions: for MIC: Candida albicans, read-out: MIC C. albicans K-1
Method: as §2

[2] = Candida tropicalis, 98234, RPMI medium, 33° C., 24 hours, lowest concentration that inhibited visible growth
[3] = B11211, multidrug-resistant clinical isolate, RPMI medium, 33° C., 24 hours, lowest concentration that inhibited visible growth
[4] = Nakaseomyces glabratus, 4720, RPMI medium, 33° C., 24 hours, lowest concentration that inhibited visible growth
[5] = K1, RPMI medium, 33° C., 24 hours, lowest concentration that inhibited visible growth
[6] = Candida tropicalis, 98234, 24 h
[7] = Nakaseomyces glabratus, 4720, 24 h
[8] = RPMI medium, 33° C., 24 hours, lowest concentration that inhibited visible growth

| Molecule | MIC (C. tropicalis 98-234; [6]) | MIC (C. auris B 11211; B11211, 24 h) | MIC (C. glabrata 4720; [7]) | MIC (C. albicans K-1; K1, 24 h) | also measured |
| --- | --- | --- | --- | --- | --- |
| C[C@@H]1[C@H](O)[C@@H](C)/C=C/C=C/C=C/C=C/C=C/C=C/C=C/[C@H](O[C@@H]2O[C@H](C)[C@@H](O)[C@H](N)[C@@H]2O)C[C@@H]2O[C@](O)(C[C@@H](O)C[C@@H](O)[C@H](O)CC[C@@H](O)C[C@@H](O)CC(=O)O[C@H]1C)C[C@H](O)[C@H]2C(=O)O [Amphotericin B] | – | – | – | – | MICs range (positive control) [1]: 0.25 to 1.5 µg/mL |
| C/C=C/C=C/C=C/C(=O)O[C@@H]1C=CC[C@H]2C(=NCCCN3CCOCC3)c3c(O)c4c5c(c3O[C@H]12)OCO[C@@H]5C[C@@H]1C(=O)c2cc(C)[nH]c(=O)c2C(=O)[C@]41O [Compound T23] | – | – | – | – | MIC (C. tropicalis 98-234; [2]): 1 µg/mL (≈ 1.33 µM); MIC (C. auris B 11211; [3]): 0.63 µg/mL (≈ 0.836 µM); MIC (C. glabrata 4720; [4]): 1 µg/mL (≈ 1.33 µM); MIC (C. albicans K-1; [5]): 1 µg/mL (≈ 1.33 µM) |
| C/C=C/C=C/C=C/C(=O)O[C@@H]1C=CC[C@H]2/C(=N/CCN3CCCCC3)c3c(O)c4c5c(c3O[C@H]12)OCO[C@@H]5C[C@@H]1C(=O)c2cc(C)[nH]c(=O)c2C(=O)[C@]41O [Compound T21] | 0.25 µg/mL (≈ 0.339 µM) | 0.06 µg/mL (≈ 0.0813 µM) | 0.25 µg/mL (≈ 0.339 µM) | 0.25 µg/mL (≈ 0.339 µM) | – |
| C/C=C/C=C/C=C/C(=O)O[C@@H]1C=CC[C@H]2C(=NCCN3CCN(C)CC3)c3c(O)c4c5c(c3O[C@H]12)OCO[C@@H]5C[C@@H]1C(=O)c2cc(C)[nH]c(=O)c2C(=O)[C@]41O [Compound T26] | – | – | – | – | MIC (C. tropicalis 98-234; [2]): 0.05 µg/mL (≈ 0.0664 µM); MIC (C. auris B 11211; [3]): 0.03 µg/mL (≈ 0.0399 µM); MIC (C. glabrata 4720; [4]): 0.5 µg/mL (≈ 0.664 µM); MIC (C. albicans K-1; [5]): 0.5 µg/mL (≈ 0.664 µM) |
| C/C=C/C=C/C=C/C(=O)O[C@@H]1C=CC[C@H]2/C(=N/CCN(C)C)c3c(O)c4c5c(c3O[C@H]12)OCO[C@@H]5C[C@@H]1C(=O)c2cc(C)[nH]c(=O)c2C(=O)[C@]41O [Compound T8] | 0.13 µg/mL (≈ 0.186 µM) | 0.25 µg/mL (≈ 0.358 µM) | 0.25 µg/mL (≈ 0.358 µM) | 0.13 µg/mL (≈ 0.186 µM) | – |
| C/C=C/C=C/C=C/C(=O)O[C@@H]1C=CC[C@H]2/C(=N/CCO)c3c(O)c4c5c(c3O[C@H]12)OCO[C@@H]5C[C@@H]1C(=O)c2cc(C)[nH]c(=O)c2C(=O)[C@]41O [Compound T7] | > 4 µg/mL | > 4 µg/mL | > 4 µg/mL | > 4 µg/mL | – |
| C/C=C/C=C/C=C/C(=O)O[C@@H]1C=CC[C@H]2/C(=N/C)c3c(O)c4c5c(c3O[C@H]12)OCO[C@@H]5C[C@@H]1C(=O)c2cc(C)[nH]c(=O)c2C(=O)[C@]41O [Compound T12] | 1 µg/mL (≈ 1.56 µM) | > 4 µg/mL | 0.5 µg/mL (≈ 0.78 µM) | 1 µg/mL (≈ 1.56 µM) | – |
| Turbinmicin [reference compound] | – | – | – | – | MIC C. tropicalis 98-234 (C. tropicalis 98-234; [8]): 0.25 µg/mL; MIC C. auris B11211 (C. auris B 11211; multidrug-resistant clinical isolate, RPMI medium, 33° C., 24 hours, lowest concentration that inhibited visible growth): 0.05 µg/mL; MIC C. glabrata 4720 (C. glabrata 4720; [8]): 0.13 µg/mL; MIC C. albicans K-1 (C. albicans K-1; [8]): 0.06 µg/mL |
| C/C=C/C=C/C=C/C(=O)O[C@@H]1C=CC[C@H]2C(=NCCN3CCCC3)c3c(O)c4c5c(c3O[C@H]12)OCO[C@@H]5C[C@@H]1C(=O)c2cc(C)[nH]c(=O)c2C(=O)[C@]41O [Compound T19] | 0.38 µg/mL (≈ 0.525 µM) | 0.25 µg/mL (≈ 0.345 µM) | 0.5 µg/mL (≈ 0.691 µM) | 0.5 µg/mL (≈ 0.691 µM) | – |
| C/C=C/C=C/C=C/C(=O)O[C@@H]1C=CC[C@H]2/C(=N/CCc3ccccn3)c3c(O)c4c5c(c3O[C@H]12)OCO[C@@H]5C[C@@H]1C(=O)c2cc(C)[nH]c(=O)c2C(=O)[C@]41O [Compound T13] | > 4 µg/mL | > 4 µg/mL | > 4 µg/mL | > 4 µg/mL | – |
| C/C=C/C=C/C=C/C(=O)O[C@@H]1C=CC[C@H]2C(=NCCCNC)c3c(O)c4c5c(c3O[C@H]12)OCO[C@@H]5C[C@@H]1C(=O)c2cc(C)[nH]c(=O)c2C(=O)[C@]41O [Compound T18] | 0.75 µg/mL (≈ 1.07 µM) | 0.38 µg/mL (≈ 0.545 µM) | 0.5 µg/mL (≈ 0.717 µM) | 1 µg/mL (≈ 1.43 µM) | – |
| C=CC/N=C1/c2c(O)c3c4c(c2O[C@@H]2[C@H](OC(=O)/C=C/C=C/C=C/C)C=CC[C@@H]12)OCO[C@@H]4C[C@@H]1C(=O)c2cc(C)[nH]c(=O)c2C(=O)[C@]31O [Compound T5] | 4 µg/mL (≈ 6 µM) | 2 µg/mL (≈ 3 µM) | 4 µg/mL (≈ 6 µM) | 2 µg/mL (≈ 3 µM) | – |
| C/C=C/C=C/C=C/C(=O)O[C@@H]1C=CC[C@H]2/C(=N\C(C)CN3CCOCC3)c3c(O)c4c5c(c3O[C@H]12)OCO[C@@H]5C[C@@H]1C(=O)c2cc(C)[nH]c(=O)c2C(=O)[C@]41O (stereo partly drawn) [Compound T25] | 1 µg/mL (≈ 1.33 µM) | 0.25 µg/mL (≈ 0.332 µM) | 0.5 µg/mL (≈ 0.663 µM) | 0.5 µg/mL (≈ 0.663 µM) | – |
| C#CC/N=C1\c2c(O)c3c4c(c2O[C@@H]2[C@H](OC(=O)/C=C/C=C/C=C/C)C=CC[C@@H]12)OCO[C@@H]4C[C@@H]1C(=O)c2cc(C)[nH]c(=O)c2C(=O)[C@]31O [Compound T15] | > 4 µg/mL | > 4 µg/mL | > 4 µg/mL | > 4 µg/mL | – |
| C/C=C/C=C/C=C/C(=O)O[C@@H]1C=CC[C@H]2/C(=N/CCCC)c3c(O)c4c5c(c3O[C@H]12)OCO[C@@H]5C[C@@H]1C(=O)c2cc(C)[nH]c(=O)c2C(=O)[C@]41O [Compound T6] | – | – | – | – | MIC (C. tropicalis 98-234; [2]): > 4 µg/mL; MIC (C. auris B 11211; [3]): > 4 µg/mL; MIC (C. glabrata 4720; [4]): > 4 µg/mL; MIC (C. albicans K-1; [5]): > 4 µg/mL |
| C/C=C/C=C/C=C/C(=O)O[C@@H]1C=CC[C@H]2C(=NCCCCCN3CCOCC3)c3c(O)c4c5c(c3O[C@H]12)OCO[C@@H]5C[C@@H]1C(=O)c2cc(C)[nH]c(=O)c2C(=O)[C@]41O [Compound T27] | 2 µg/mL (≈ 2.56 µM) | 0.5 µg/mL (≈ 0.64 µM) | 1 µg/mL (≈ 1.28 µM) | 1 µg/mL (≈ 1.28 µM) | – |
| C/C=C/C=C/C=C/C(=O)O[C@@H]1C=CC[C@H]2C(=NCCN3CCS(=O)(=O)CC3)c3c(O)c4c5c(c3O[C@H]12)OCO[C@@H]5C[C@@H]1C(=O)c2cc(C)[nH]c(=O)c2C(=O)[C@]41O [Compound T24] | 1 µg/mL (≈ 1.27 µM) | 0.28 µg/mL (≈ 0.355 µM) | 1 µg/mL (≈ 1.27 µM) | 0.75 µg/mL (≈ 0.952 µM) | – |
| C/C=C/C=C/C=C/C(=O)O[C@@H]1C=CC[C@H]2/C(=N/Cc3ccccc3)c3c(O)c4c5c(c3O[C@H]12)OCO[C@@H]5C[C@@H]1C(=O)c2cc(C)[nH]c(=O)c2C(=O)[C@]41O [Compound T10] | – | – | – | – | MIC (C. tropicalis 98-234; [2]): 4 µg/mL (≈ 5.58 µM); MIC (C. auris B 11211; [3]): 4 µg/mL (≈ 5.58 µM); MIC (C. glabrata 4720; [4]): 1 µg/mL (≈ 1.4 µM); MIC (C. albicans K-1; [5]): 2 µg/mL (≈ 2.79 µM) |

From patent US20250090520A1, “DERIVATIVES OF TURBINMICIN AS ANTIFUNGAL AGENTS” (Wisconsin Alumni Research Foundation, priority 2021, published 2025)
